Assay [1] has as its system HeLa cells. As to the kind of experiment: Split HaloTag FRB/FKBP plate-based fluorescent assay in live HeLa cells. The class given is cell-based. The note with it: for performance of small HaloTag fragment: live HeLa cells, 500 nM Rapamycin, 50 nM JF646. The procedure:
FIG. 27A-B. Activity of split HaloTag combinations in live mammalian cells. HeLa cells transiently transfected with plasmids expressing the large HaloTag fragments fused to FRB and small HaloTag fragments fused to FKBP were incubated for 2 hours with 500 nM Rapamycin, followed by labeling with 50 nM JF646 HaloTag ligand prior to detection of fluorescence at indicated timepoints. FIG. 27A Fluorescence intensity of JF646 HaloTag ligand in live cell assays over time comparing cells treated or untreated with Rapamycin. FIG. 27B Fold response of each assay condition was calculated as the ratio of fluorescence signal for +Rapamycin/−Rapamycin treated cells.
FIG. 90. The activity of different small HaloTag fragments in live mammalian cells. HeLa cells transiently transfected with plasmids expressing the large HaloTag fragment fused to FRB and small HaloTag fragments fused to FKBP were incubated for 2 hours with 500 nM Rapamycin, followed by labeling with 50 nM JF646 HaloTag ligand prior to detection of fluorescence activity at indicated time points. Fluorescence intensity of JF646 HaloTag ligand in live cell assays over time comparing cells treated or untreated with Rapamycin.
FIG. 91. Fold response of different small HaloTag fragments in live mammalian cells. HeLa cells transiently transfected with plasmids expressing the large HaloTag fragment fused to FRB and small HaloTag fragments fused to FKBP were incubated for 2 hours with 500 nM Rapamycin, followed by labeling with 50 nM JF646 HaloTag ligand prior to detection of fluorescence activity at indicated time points. The fold response of each assay condition was calculated as the ratio of fluorescence signal for +Rapamycin/−Rapamycin treated cells.
FIG. 93. Activity comparison of HaloTag[22-297] variants in a protein complementation assay in live mammalian cells. HeLa cells transiently transfected with plasmids expressing the large HaloTag fragment fused to FRB and small HaloTag fragments fused to FKBP were incubated for 2 hours with 500 nM Rapamycin, followed by labeling with 50 nM JF646 HaloTag ligand prior to detection of fluorescence activity at indicated time points. Fluorescence intensity of JF646 HaloTag ligand in live cell assays over time comparing cells treated or untreated with Rapamycin.
FIG. 94. […] HeLa cells transiently transfected with plasmids expressing the large HaloTag fragment fused to FRB and small HaloTag fragments fused to FKBP were incubated for 2 hours with 500 nM Rapamycin, followed by labeling with 50 nM JF646 HaloTag ligand prior to detection of fluorescence activity at indicated time points. The fold response of each assay condition was calculated as the ratio of fluorescence signal for +Rapamycin/− Rapamycin treated cells. […]

Assay [2] concerns the target T1, Calmodulin:M13 interaction (Homo sapiens, UniProt P0DP23).
T1 construct: HaloTag[3-19]; expressed in transfected cells; host or cells: HeLa cells
Description: Calmodulin:M13 interaction with split HaloTag, live cell imaging in HeLa cells. The format is cell-based. As for the experimental part: FIG. 142. Live cell imaging of split HaloTag function in detecting the interaction between Calmodulin protein with the M13 peptide induced upon the addition of Ca ions in live mammalian cells. […] Prior to imaging by confocal microscopy, cells were labeled with 100 nM JF646 HaloTag ligand for 30 minutes at 37° C. The imaging data were collected in the far-red channel (Ex. 637 nm) and the green channel (Ex. 488 nm).
FIG. 143. Background measurement of HaloTag[22-297](M2F) fused to M13 peptide in live mammalian cells at lower laser intensity To measure the background originating from labeling the HaloTag [22-297](M2F) fragment, cells were transfected with just the M13-HaloTag[22-297](M2F)-EGFP plasmid and imaged using the same microscope settings. The Imaging data were collected in the far-red channel (Ex. 637 nm) and the green channel (Ex. 488 nm).
FIG. 144. Quantitation of live cell imaging of split HaloTag function in detecting the Calmodulin and M13 peptide interaction in live mammalian cells. Comparison of the fluorescent intensity of all imaged cells across several fields of view in the presence or absence of Calcium chloride (6 mM) conditions compared against the background fluorescent intensity of the labeled non-complemented HaloTag[22-297](M2F) fragment alone. Each dot represents the intensity of an imaged cell. CellProfiler software is used for this analysis.

Assay [3] deals with T1, Calmodulin:M13 interaction. As to the kind of experiment: Calmodulin:M13 interaction with split HaloTag, plate assay in live HeLa cells. The format is cell-based. The procedure:
FIG. 140. Use of split HaloTag in detecting the interaction between Calmodulin and M13 peptide induced by the Calcium ions in live mammalian cells. […] The fluorescence activity was measured at indicated time points. For each construct, four technical replicates were tested. The bar for each construct is the mean of the four replicates, and the error bar represents the standard deviations.
FIG. 141. The fold response of split HaloTag in detecting the interaction between Calmodulin and M13 peptide induced by the Calcium ions in live mammalian cells. The fold response of each assay condition was calculated as the ratio of fluorescence signal for +Calcium chloride divided by −Calcium chloride treated cells (B). For each construct, four technical replicates have been tested. The bar for each construct is the mean of the four replicates, and the error bar represents the standard deviations.

For assay [4], the system named is HeLa cells. Description: Live cell labeling kinetics of split HaloTag fragments fused to BRD4 and Histone H3, time-lapse imaging. The format is cell-based. The following applies: 100 nM JF646, BRD4-HaloTag[3-19] and H3.3-HaloTag[22-297](M2F)-EGFP. The procedure: FIG. 136. Timepoint imaging of complemented BRD4:Histone H3 complexes in live cells after addition of JF646 HaloTag ligand. […] Cells were immediately imaged after the ligand, 100 nM JF646, addition every 15 minutes for 1.5 hour. Imaging data were collected in the Far-red channel (Ex. 637 nm, top panel) and the green channel (Ex. 488 nm, bottom panel).
FIG. 137. Quantitation of live cell labeling kinetics of split HaloTag fragments fused to BRD4 and Histone H3 using time-lapse imaging. Cells were immediately imaged after the ligand addition every 10 minutes for 70 minutes. A Z-stack image was obtained at all time points to ensure all cells were captured in focus. The most focused Z levels were merged into one, and the intensity of all cells (6 total objects) was measured and averaged at all time points. The average of all cells' intensities present in the captured field of view were tracked in the far-red channel and the green channel over this period. […]
To measure the labeling rate, cells were immediately imaged after ligand addition every 10 minutes for 70 minutes (FIG. 137). […] The most focused Z levels were merged into one, and the intensity of all cells (6 total objects) was measured and averaged at all time points. […]

The nature of assay [5]: Complementation of N-terminal split HaloTag constructs in E. coli lysates, Janelia Fluor ligand fluorescence. The following applies: FKBP fusion against HT(23-297)-FRB, 500 nM Rapamycin, JF646. The class given is biochemical. As for the experimental part: FIG. 21A-B. Comparison of complementation activity of N-terminal split HaloTag constructs. Each HaloTag fragment was expressed separately in E. coli and then combined after lysis. The smaller N-terminal HaloTag fragments as FKBP fusions were tested against the larger fragments of FIG. 21A HT(23-297)-FRB or FIG. 21B HT(22-297)-FRB. To each reaction, 500 nM Rapamycin was added and incubated at room temperature for 2.5 hours prior to addition of 50 nM JF646 ligand and measurement of fluorescence at the indicated timepoint.
FIG. 22. Comparison of truncations of N-terminal split HaloTag constructs. Each HaloTag fragment was expressed separately in E. coli and then combined after lysis. […] To each reaction, 500 nM Rapamycin was added and incubated at room temperature for 2 hours prior to addition of 50 nM JF646 ligand and measurement of fluorescence at the indicated timepoint.
FIG. 25A-B. Mutations in N-terminal split HaloTag fragments improve fluorescence intensity and fold response. […] To each reaction, 500 nM Rapamycin was added and incubated at room temperature for 2 hours prior to addition of 50 nM JF646 ligand and measurement of fluorescence at the indicated timepoint. FIG. 25A Fluorescence intensity is shown for +Rapamycin condition to show the overall system brightness relative to FIG. 25B Fold response following Rapamycin addition. […]

On to “HaloTag[1-30]: small HaloTag fragment, residues 1-30, FKBP fusion”, for which the “performance of small HaloTag fragment” value in the assay with HeLa cells [1] is “best SmHT in this assay”. Further, the background complementation entry in the assay on HeLa cells [1] (no Rapamycin) is on record as “higher background (no Rapamycin) complementation”.

For the molecule `[Ca+2].[Cl-].[Cl-]` [calcium, Calcium chloride], the “change in fluorescence from split HaloTag complementation” value in assay [2] (6 mM Calcium chloride, microscopy) was “significant increase in fluorescence”. Further, the “increase in median fluorescence” value in assay [2] (across all cell images, Calcium chloride 6 mM) stood at 7 ×. Also, in assay [3], the “change in fluorescence of split HaloTag fused to Calmodulin and M13 peptide” value is listed as “modest, calcium-dependent increase in fluorescence”.

As for `C[Si]1(C)c2cc(N3CCC3)ccc2C2(OC(=O)c3ccc(C(=O)NCCOCCOCCCCCCCl)cc32)c2ccc(N3CCC3)cc21` [JF646], the “time for far-red channel signal to reach its maximum” value with HeLa cells [4] is “about 40 minutes”.

For “HT(8-19): truncated small N-terminal HaloTag fragment, residues 8-19, FKBP fusion”, in assay [5], the “complementation activity of truncated small fragment” value is listed as “Complementation activity was demonstrated”.

For the molecule “HT(4-19): small HaloTag fragment, residues 4-19, FKBP fusion”, in the assay with HeLa cells [1], the “performance of small HaloTag fragment” value was “good fluorescence intensities and high fold responses”.

Regarding “HaloTag[3-19]: small HaloTag fragment, residues 3-19 of the HALOTAG sequence; used as fusion or synthetic peptide (EIGTGFPFDPHYVEVLG)”, in the assay with HeLa cells [1], the “performance of small HaloTag fragment” value was “good fluorescence intensities and high fold responses”.

Source of the values: patent US20240174992A1, “SPLIT MODIFIED DEHALOGENASE VARIANTS” (Promega Corporation, priority 2022, published 2024).
